Data: US8658357B2, “Orotate transporter encoding marker genes” (Novozymes A/S, priority 2004, dated 2014)

Assays:
[1] = test system: B. subtilis HH263 derived strains ED344 and ED348; assay: FOA sensitivity by streaking on selective MM plates; type: cell-based, Bacillus subtilis
Method: The resulting strains were denoted ED344 (HH263 amyE::pDG268) and ED348 (HH263 amyE::pED301). ED344 and ED348 were streaked on selective MM plates containing 5 micro-g/ml neomycine, one with 20 micro-g/ml FOA, and one without. The screening plates were incubated overnight at 37° C.

E. coli XL1-Blue = assay: Screening for fluoroorotate sensitivity by streaking on ABTG plates; type: cell-based, Escherichia coli
Method: QIAGEN™-purified plasmid DNA of pED301 (ysbC), or pDG268 (negative control) was introduced into competent XL1-Blue cells by the heat shock procedure, and transformants harboring plasmid pED301 or pDG268 were selected at 37° C. on LB plates supplemented with 100 micro-g/ml ampicillin. Transformants were screened for fluoroorotate sensitivity by streaking them on ABTG plates without or with 20 micro-g/ml fluoroorotate and incubation overnight at 37° C.

[2] = test system: L. lactis NCDO712 and MG1363; assay: Screening for FOA sensitivity by streaking on SA-glucose plates with FOA; type: cell-based, Lactococcus lactis ssp. cremoris
Method: Lactococcal cultures were grown at 30° C. either in M17 broth (Terzaghi and Sandine, 1975) or in minimal SA-medium (Jensen and Hammer, 1993) supplemented with 0.5% and 1% glucose, respectively. E. coli strains were grown at 37° C. either in Luria-Bertani (LB) broth or in minimal ABTG medium (Clark and Maaløe, 1967). B. subtilis strains were grown at 37° C. either in LB medium or in minimal MM medium. Agar plates were made by adding […] agar to the broth medium. If necessary, the following supplements were added to the different media: orotate at 20 micro-g/ml, uracil at 20 micro-g/ml, 5-fluoroorotate (FOA) at 20 micro-g/ml, erythromycin at 5 micro-g/ml, chloramphenicol at 5 micro-g/ml for lactococci and 20 micro-g/ml for E. coli, ampicillin at 100 micro-g/ml.
QIAGEN™ purified plasmid DNA of pED210 and pCI3440 was introduced into competent NCDO712 and MG1363 cells by electroporation, and transformants harboring either plasmid pED210 or pCI3440 were selected at 30° C. on SR plates supplemented with 5 micro-g/ml chloramphenicol. Transformants harboring either pED210 or pCI3440 were screened for FOA sensitivity by streaking them on SA-glucose plates with 20 micro-g/ml FOA, and incubation overnight at 30° C.

In the case of O=C(O)c1[nH]c(=O)[nH]c(=O)c1F [FOA, 5-fluoroorotate], the “FOA resistance/sensitivity (growth)” value ([1]; ED344 (HH263 amyE::pDG268, control), 20 micro-g/ml FOA, MM plates, overnight 37° C.) is reported as “resistant”, the “FOA resistance/sensitivity (growth)” value ([1]; ED348 (HH263 amyE::pED301, ysbC), 20 micro-g/ml FOA, MM plates, overnight 37° C.) is reported as “sensitive” and the “FOA resistance/sensitivity (growth)” value ([1]; untransformed B. subtilis HH263 (168 trpC2)) is reported as “resistant”. For the same compound, the “FOA resistance/sensitivity (growth)” value (E. coli XL1-Blue; XL1-Blue harbouring pED301 (ysbC), 20 micro-g/ml fluoroorotate, ABTG plates, overnight 37° C.) was “sensitive”, the “FOA resistance/sensitivity (growth)” value (E. coli XL1-Blue; untransformed E. coli XL1-Blue) was “resistant” and the “FOA resistance/sensitivity (growth)” value ([2]; L. lactis strain ED79.1175 (MG1363 ΔpyrDa ΔpyrDb)) was “resistant”. For the same compound, the “FOA resistance/sensitivity (growth)” value ([2]; NCDO712 and MG1363 containing plasmid pED210 (ysbC), 20 micro-g/ml FOA, SA-glucose plates, overnight 30° C.) was “sensitive”, the “FOA resistance/sensitivity (growth)” value ([2]; NCDO712 and MG1363 containing vector pCI3440 (control), 20 micro-g/ml FOA, SA-glucose plates, overnight 30° C.) was “resistant” and the “FOA resistance/sensitivity (growth)” value ([2]; untransformed L. lactis NCDO712 and MG1363) was “resistant”.
